Entries after “also recorded” stand apart in the source; their conditions may differ.

The nature of series [1]: Determination of logD7.4 (n-octanol/PBS). It is filed as physicochemical. The following applies: n-octanol/PBS pH 7.4; mean ± SD, three independent experiments. As for the experimental part: For the determination of the octanol–water coefficient, an aliquot of the radiotracer was added to PBS (500 µL, pH 7.4) and n-octanol (500 µL) in an Eppendorf tube. The mixture was vortexed and subsequently centrifuged, each for 1 min. Three samples (each 100 µL) were taken from both the PBS and the n-octanol layer and measured using a γ-counter (Wallac Wizard, PerkinElmer, Waltham, MA, USA). The logD7.4 was expressed as log(cpmoctanol/cpmPBS) and reported as mean ± SD. The determination of logD7.4 was performed in three independent experiments, each performed in triplicate.

A short description of series [2]: Stability in human serum and plasma in vitro (radio-HPLC). Format: in vitro ADME. The conditions noted are these: 37 °C. As for the experimental part:
An aliquot of the formulated tracer solution (40 µL containing approx. 10 MBq in 0.9% NaCl) was incubated with 200 µL of human plasma (Hölzel Diagnostika Handels GmbH, from CosmoBio USA, Carlsbad, CA, USA) or human serum (Biochrom GmbH, Merck KGaA, Darmstadt, Germany), respectively, at 37 °C. After various time points (5–120 min), aliquots (30 µL) were taken and quenched in methanol or 10% TFA (30 µL). The samples were centrifuged for 3 min, and subsequently the supernatants were analyzed by radio-HPLC (Chromolith RP-18e, 100 × 4.6 mm, 10–100% acetonitrile (with 0.1% TFA) in water (with 0.1% TFA) over 5 min, 4 mL/min).

A short description of series [3]: Plasma protein binding (MicroSpin G-50 columns). Format: in vitro ADME. The conditions noted are these: human plasma, 10 min, 37 °C. The protocol: MicroSPin G-50 columns (Cytiva, Merck KGaA, Darmstadt, Germany) were preconditioned according to the manufacturer’s protocol and the experiment was performed as follows. In brief, an aliquot of the tracer (1 µL, approx. 250 kBq) was added to NaCl (0.9%, 200 µL, negative control) or human plasma (200 µL) and incubated for 10 min at 37 °C. A sample from the plasma or negative control (40 µL) was carefully added to the resin, and the column was placed in an Eppendorf tube. After centrifugation (2 min, 2000× g), the eluate and the resin were collected separately. Both were measured for radioactivity using a γ-counter (Wallac Wizard, PerkinElmer, Waltham, MA, USA), and the radioactivity eluted from the resin was calculated as a percentage of the total amount of radioactivity. The determination of plasma protein binding was performed twice in duplicate.

In series [4] the test system is T47D (ER+) and MDA-MB-231 (ER-) tumor-bearing nude mice. The series is described as follows: Biodistribution in tumor-bearing nude mice. It is filed as in vivo. The protocol:
(§1) Female NMRI nude mice (Crl:NMRI-Foxn1^nu) were purchased from Charles River (Charles River Laboratories Inc., Wilmington, MA, USA) at the age of four weeks and kept in groups of four to five animals in individually ventilated cages in a twelve hours dark/light cycle, with unlimited access to water and standard chow. At the age of nine to ten weeks, one 17β-estradiol pellet per animal (0.72 mg per pellet, 3 mm diameter) with a 60-day release time (Innovative Research of America, Sarasota, FL, USA) was subcutaneously implanted on the back under isoflurane anesthesia. After three days, approximately 2–3 × 10^6 MCF-7, T47D or MDA-MB-231 tumor cells (in 50 µL PBS) were mixed with Matrigel (50 µL, BD Biosciences, Becton, Dickinson and Company, Franklin Lakes, NJ, USA) and injected subcutaneously to the back of the mice. Tumor diameters and weight of the animals were recorded five times a week. Biodistribution or imaging studies were performed three–four weeks after the inoculation of the cells.
For biodistribution experiments, nude mice bearing T47D and MDA-MB-231 tumors (n = 3, per group) were injected with ^18F-TA-Glyco-EE (2–4 MBq) under isoflurane anesthesia. After 30, 60 or 90 min, the mice were sacrificed by cervical dislocation. Blood, as well as organs and tissue from the lung, liver, kidneys, heart, spleen, brain, muscle, femur and tumors, were harvested and measured for radioactivity in the γ-counter (Wallac Wizard, PerkinElmer, Waltham, MA, USA). The samples were weighed, and the radioactivity of each tissue sample was calculated as a percentage of the total injected dose per gram tissue (%ID/g).

Series [5] concerns MCF-7 (ER+) tumor-bearing nude mice. The series is described as follows: Small animal PET imaging. Format: in vivo. The protocol: as §1, with “cells. […] Dynamic images were acquired for 60 min, starting with the injection of the radiotracer. […] Regions of interest (ROIs) were drawn over the tumor, and the mean radioactivity concentration within these regions was obtained from the mean values and calculated as a percentage of the total injected dose per gram tissue (%ID/g).” for “cells.”

In the case of `CC(=O)OC1C(C[18F])OC(n2cc(C3(O)CCC4C5CCc6cc(O)ccc6C5CCC43C)nn2)C(OC(C)=O)C1OC(C)=O` (stereo not drawn) [^18F-TA-Glyco-EE], the logD7.4 in series [1] was 2.3 ± 0.1. Besides, the “Stability in human serum and plasma (in words)” value in series [2] (over 120 min, radio-HPLC) was “rapidly deacetylated in serum and plasma”. The “Stability in Human Serum or Plasma” value in series [2] (after 30 min, same for serum and plasma, deacetylation observed) is 0% after 30 min ^2,5. The “Plasma Protein Binding” value in series [3] came out at 79 ± 1%. Moreover, in series [4] (30 min p.i.), the “Uptake in MDA-MB-231 tumors” value was found to be 0.9 %ID/g, the “Uptake in T47D tumors” value is listed as 1.0 %ID/g, the Uptake in intestine stood at 10 %ID/g and the Uptake in liver is 13 %ID/g. Moreover, in series [4] (60 min and 90 min p.i., multiple t-test), the “Tumor uptake ER+ T47D versus ER- MDA-MB-231” value is on record as “statistically significant differences”. This compound also displayed an Uptake in liver in series [4] (90 min p.i.) of 1.2 %ID/g. In addition, the “Uptake in blood and all other non-target organs” value in series [4] (all time points (30, 60, 90 min p.i.)) is “low”. Also, the “Uptake in T47D or MDA-MB-231 tumors” value in series [4] (as summarised in the discussion) is under 1 %ID/g. Further, in series [4] (decreasing over 90 min), the “Uptake in liver and intestine” value was “less than 3 %ID/g”. For the same compound, the “Uptake in MCF-7 tumors (PET)” value in series [5] (60 min p.i.) is reported as “around 1 %ID/g”. The “Tumor uptake, non-treated versus fulvestrant-treated animals (PET)” value in series [5] (fulvestrant 0.5 mg s.c., second scan 48 h later, n = 4) is “significantly reduced tumor uptake on PET scans in one of the four animals; also recorded: did not show a significant difference”.
